Data on ten compounds can be found in patent US20260295053A1, “COMPOUNDS FOR DEGRADATION AND INHIBITION OF KRAS (G12D) PROTEIN” (Shenzhen Ionova Life Science Co., Ltd., priority 2023, published 2026).

A value given as a limit tells only on which side of the number the result lay.

The test system of one assay is AsPC-1 cells. Kind of assay: AsPC-1 cell proliferation assay (CellTiter Glo). The assay is classed as cell-based. The conditions noted are these: Homo sapiens, ASPC1, 144 h, 6 days. Here is the method:
ASPC-1 and PK-59 cellular assays ASPC-1 (ATCC cat. CRL-1682) and PK-59 (Nanjing Cobioer, Cat. No. CBP61184) were used in KRAS cellular degradation, pERK inhibition and proliferation assays. The two cell lines were maintained following vendor's instructions. For monitoring KRAS (G12D) cellular degradation and pERK biomarker inhibition, cells were seeded into a 96-well plate with 22,000 and 16,000 cells/well for assays in ASPC-1 and PK-59, respectively. Cells were incubated at 37° C. with 5% CO2 and cell density was monitored until ^~90% confluency was reached. Compounds were serially diluted at a 1:3 ratio and dispensed into each well at final concentrations ranging from […] to 1.5 nM. After incubation for 24 hours, the culture media were removed and the cells were subjected to fixation, permeabilization and blocking (Intercept blocking buffer, Li-cor). For KRAS (G12D) degradation, the cells were treated with primary antibody (KRAS G12D antibody, Cell Signaling Technologies, Cat. No. CST14429) and for β-actin (β-actin mAb, Beyotime, Cat. No. AF-5001), and followed by secondary antibodies, Anti-rabbit IgG (H+L) (DyLight™ 800 4×PEG Conjugate) or IRDye® 680RD Goat anti-Mouse IgG. For pERK inhibition assay, cells were treated with primary antibodies for pERK (Phospho-p44/42 MAPK (Erk1/2) (Thr202/Tyr204) (D13.14.4E) XP® Rabbit mAb, Cell Signaling Technologies, Cat. No. CST-4370) and β-actin (β-actin mAb, Beyotime, Cat. No. AF-5001), and followed by secondary antibodies, Anti-rabbit IgG (H+L) (DyLight™ 800 4×PEG Conjugate) or IRDye® 680RD Goat anti-Mouse IgG. Fluorescence signals were read on Odyssey CLX instrument. For cell proliferation assays, cells were seeded into a 96-well plate at 3,500 and 800 cells/well for assays in ASPC-1 and PK-59, respectively. Cells were incubated at 37° C. with 5% CO2 for overnight. Compounds were serially diluted at a 1:3 ratio and dispensed into each well at final concentrations ranging from […] to 1.5 nM. After incubation for 6 days, cell viability reagent (CellTiter Glo, Promega, Cat. No. G7573) was added to each well and luminescence was recorded on Molecular Devices Spectramax iD3 instrument. IC50, half-maximal inhibitory concentration for pERK inhibition or cell proliferation, and DC50, half-maximal degradation concentration in KRAS (G12D) cellular degradation were determined by fitting the corresponding dose response curves using GraphPad Prism software.
Wherein “A” means the value <10 nM, “B” means 10 nM<the value <100 nM, “C” means 100 nM<the value <1000 nM, and “D” means the value >1000 nM, in which, the value means the value of DC50 or IC50. NT means not tested.

A further assay deals with T1, KRAS (G12D) (Homo sapiens, UniProt P01116, G12D).
T1 construct: in-cell western with KRAS G12D antibody after 24 h
T1 sequence (P01116 1-188 isoform P01116-2 G12D): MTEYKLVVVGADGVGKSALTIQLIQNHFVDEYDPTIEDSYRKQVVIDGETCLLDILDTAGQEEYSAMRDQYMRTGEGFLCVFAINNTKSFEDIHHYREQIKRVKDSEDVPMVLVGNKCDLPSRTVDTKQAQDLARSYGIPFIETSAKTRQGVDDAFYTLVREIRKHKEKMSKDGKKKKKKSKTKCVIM
Kind of assay: KRAS (G12D) cellular degradation assay in AsPC-1 cells. The conditions noted are these: 24 hours, antibody fluorescence (Odyssey CLX), DC50 half-maximal degradation concentration. Type of assay: cell-based. In a few lines: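 Read-outs were KRAS G12D immunofluorescence against β-actin after 24 h (DC50) and CellTiter Glo luminescence after 6 days (IC50). Compounds were titrated 1:3 from […] to 1.5 nM final on AsPC-1 cells at 37 °C, 5% CO2.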

In the assay on AsPC-1 cells, `CO[C@@H](C)COc1nc(N2CC3CCC(C2)N3)c2cc(C3CC3)c(-c3c(C)c(F)cc4[nH]ncc34)c(OCc3ccc(-c4cn([C@H](C(=O)N5C[C@H](O)C[C@H]5C(=O)N[C@@H](CO)c5ccc(-c6scnc6C)cc5)C(C)C)nn4)cc3)c2n1` (single isomer, unassigned) [Example 12A] yielded a concentration for half-maximal inhibition (IC50) of 10 to 100 nM. On KRAS (G12D), this compound gave a 50% degradation concentration (DC50) of 10 to 100 nM.

As to `CCn1nccc1-c1ccc([C@H](CO)NC(=O)[C@@H]2C[C@@H](O)CN2C(=O)[C@H](C(C)C)n2cc(-c3ccc(COc4c(-c5c(C)c(F)cc6[nH]ncc56)c(C5CC5)cc5c(N6CC7CCC(C6)N7)nc(OC[C@H](C)OC)nc45)cc3)nn2)cc1` (single isomer, unassigned) [Example 13A], the 50% inhibitory concentration (IC50) with AsPC-1 cells was in the range of 10 to 100 nM. The same compound displayed a DC50 at KRAS (G12D) of 10 to 100 nM.

`CCn1nccc1-c1ccc([C@H](CO)NC(=O)[C@@H]2C[C@@H](O)CN2C(=O)[C@H](C(C)C)n2cc(-c3ccc(COc4c(-c5c(C)c(F)cc6[nH]ncc56)c(C5CC5)cc5c(N6C[C@H]7C[C@@H]6CN7)nc(OC6CCOCC6)nc45)cc3)nn2)cc1` (stereo in doubt) [Example 10, (2S,4R)-1-((2S)-2-(4-(4-(((4-((1R,4R)-2,5-diazabicyclo[2.2.1]heptan-2-yl)-6-cyclopropyl-7-(6-fluoro-5-methyl-1H-indazol-4-yl)-2-((tetrahydro-2H-pyran-4-yl)oxy)quinazolin-8-yl)oxy)methyl)phenyl)-1H-1,2,3-triazol-1-yl)-3-methylbutanoyl)-N—((R)-1-(4-(1-ethyl-1H-pyrazol-5-yl)phenyl)-2-hydroxyethyl)-4-hydroxypyrrolidine-2-carboxamide] came in with an IC50 with AsPC-1 cells of 10 to 100 nM. This compound came in with a 50% degradation concentration (DC50) at KRAS (G12D) of 10 to 100 nM.

As for `CCn1nccc1C#CC(CO)NC(=O)[C@@H]1C[C@@H](O)CN1C(=O)[C@H](C(C)C)n1cc(-c2ccc(COc3c(-c4c(C)c(F)cc5[nH]ncc45)c(C4CC4)cc4c(N5C[C@@H]6C[C@H]5CN6)nc(OC[C@H](C)OC)nc34)cc2)nn1` (stereo in doubt) [Example 34, (2S,4R)-1-((2S)-2-(4-(4-(((4-((1S,4S)-2,5-diazabicyclo[2.2.1]heptan-2-yl)-6-cyclopropyl-7-(6-fluoro-5-methyl-1H-indazol-4-yl)-2-((S)-2-methoxypropoxy)quinazolin-8-yl)oxy)methyl)phenyl)-1H-1,2,3-triazol-1-yl)-3-methylbutanoyl)-N—((R)-4-(1-ethyl-1H-pyrazol-5-yl)-1-hydroxybut-3-yn-2-yl)-4-hydroxypyrrolidine-2-carboxamide], the half-maximal inhibitory concentration (IC50) in the assay with AsPC-1 cells was < 10 nM. In addition, the half-maximal degradation concentration (DC50) at KRAS (G12D) is < 10 nM.

For the compound `CCn1nccc1-c1ccc([C@@H](NC(=O)[C@@H]2C[C@@H](O)CN2C(=O)[C@H](C(C)C)n2cc(-c3ccc(COc4c(-c5c(C)c(F)cc6[nH]ncc56)c(C5CC5)cc5c(N6C[C@@H]7C[C@H]6CN7)nc(OC[C@H](C)OC)nc45)cc3)nn2)C(C)O)cc1` (stereo in doubt) [Example 75, (2S,4R)-1-((2S)-2-(4-(4-(((4-((1S,4S)-2,5-diazabicyclo[2.2.1]heptan-2-yl)-6-cyclopropyl-7-(6-fluoro-5-methyl-1H-indazol-4-yl)-2-((S)-2-methoxypropoxy)quinazolin-8-yl)oxy)methyl)phenyl)-1H-1,2,3-triazol-1-yl)-3-methylbutanoyl)-N-((1R,2R)-1-(4-(1-ethyl-1H-pyrazol-5-yl)phenyl)-2-hydroxypropyl)-4-hydroxypyrrolidine-2-carboxamide], the IC50 in the assay with AsPC-1 cells was < 10 nM. On KRAS (G12D), the DC50 is < 10 nM.

`CO[C@@H](C)COc1nc(N(C)[C@H]2CCNC2)c2cc(C3CCC3)c(-c3c(C)c(F)cc4[nH]ncc34)c(OCc3ccc(-c4cn([C@H](C(=O)N5C[C@H](O)C[C@H]5C(=O)N[C@H](c5ccc(-c6scnc6C)cc5)C(C)O)C(C)C)nn4)cc3)c2n1` (stereo in doubt) [Example 142, (2S,4R)-1-((2S)-2-(4-(4-(((6-cyclobutyl-7-(6-fluoro-5-methyl-1H-indazol-4-yl)-2-((S)-2-methoxypropoxy)-4-(methyl((S)-pyrrolidin-3-yl)amino)quinazolin-8-yl)oxy)methyl)phenyl)-1H-1,2,3-triazol-1-yl)-3-methylbutanoyl)-4-hydroxy-N-((1R,2R)-2-hydroxy-1-(4-(4-methylthiazol-5-yl)phenyl)propyl)pyrrolidine-2-carboxamide]: the half-maximal inhibitory concentration (IC50) in the assay on AsPC-1 cells was < 10 nM. Moreover, the half-maximal degradation concentration (DC50) at KRAS (G12D) was < 10 nM.

Turning to `CCn1nccc1-c1ccc([C@H](CO)NC(=O)[C@@H]2C[C@@H](O)CN2C(=O)[C@H](C(C)C)n2cc(-c3ccc(COc4c(-c5c(C)c(F)cc6[nH]ncc56)c(C(F)(F)F)cc5c(N6C[C@@H]7C[C@H]6CN7)nc(OC[C@H](C)OC)nc45)cc3)nn2)cc1` [Example 30, (2S,4R)-1-((2S)-2-(4-(4-(((4-((1S,4S)-2,5-diazabicyclo[2.2.1]heptan-2-yl)-7-(6-fluoro-5-methyl-1H-indazol-4-yl)-2-((S)-2-methoxypropoxy)-6-(trifluoromethyl)quinazolin-8-yl)oxy)methyl)phenyl)-1H-1,2,3-triazol-1-yl)-3-methylbutanoyl)-N—((R)-1-(4-(1-ethyl-1H-pyrazol-5-yl)phenyl)-2-hydroxyethyl)-4-hydroxypyrrolidine-2-carboxamide], in the assay on AsPC-1 cells, the half-maximal inhibitory concentration (IC50) is < 10 nM. Further, at KRAS (G12D), the DC50 is < 10 nM.

Consider `CCn1nccc1-c1ccc([C@H](CO)NC(=O)[C@@H]2C[C@@H](O)CN2C(=O)[C@H](C(C)C)n2cc(-c3ccc(COc4c(-c5c(C)c(F)cc6[nH]ncc56)c(C5CC5)cc5c(N6C[C@@H]7C[C@H]6CN7)nc(OC[C@H](C)OC)nc45)c4c3CC4)nn2)cc1` [Example 31, (2S,4R)-1-((2S)-2-(4-(5-(((4-((1S,4S)-2,5-diazabicyclo[2.2.1]heptan-2-yl)-6-cyclopropyl-7-(6-fluoro-5-methyl-1H-indazol-4-yl)-2-((S)-2-methoxypropoxy)quinazolin-8-yl)oxy)methyl)bicyclo[4.2.0]octa-1,3,5-trien-2-yl)-1H-1,2,3-triazol-1-yl)-3-methylbutanoyl)-N—((R)-1-(4-(1-ethyl-1H-pyrazol-5-yl)phenyl)-2-hydroxyethyl)-4-hydroxypyrrolidine-2-carboxamide], for which the half-inhibitory concentration (IC50) in the assay with AsPC-1 cells is < 10 nM. In addition, the DC50 on KRAS (G12D) was 10 to 100 nM.

The compound `CCn1nccc1-c1ccc([C@H](CO)NC(=O)[C@@H]2C[C@@H](O)CN2C(=O)[C@H](C(C)C)n2cc(-c3ccc(COc4c(-c5c(C)c(F)cc6[nH]ncc56)c(C5CC5)cc5c(N6C[C@@H]7C[C@H]6CN7)nc(OC[C@H](C)OC)nc45)cc3Cl)nn2)cc1` [Example 32, (2S,4R)-1-((2S)-2-(4-(4-(((4-((1S,4S)-2,5-diazabicyclo[2.2.1]heptan-2-yl)-6-cyclopropyl-7-(6-fluoro-5-methyl-1H-indazol-4-yl)-2-((S)-2-methoxypropoxy)quinazolin-8-yl)oxy)methyl)-2-chlorophenyl)-1H-1,2,3-triazol-1-yl)-3-methylbutanoyl)-N—((R)-1-(4-(1-ethyl-1H-pyrazol-5-yl)phenyl)-2-hydroxyethyl)-4-hydroxypyrrolidine-2-carboxamide] gave an IC50 with AsPC-1 cells of 10 to 100 nM. The half-maximal degradation concentration (DC50) at KRAS (G12D) is 10 to 100 nM.

On to `CCn1nccc1-c1ccc([C@H](CO)NC(=O)[C@@H]2C[C@@H](O)CN2C(=O)[C@H](C(C)C)n2cc(-c3ccc(COc4c(-c5c(C)c(F)cc6[nH]nc(F)c56)c(C5CC5)cc5c(N6C[C@@H]7C[C@H]6CN7)nc(OC[C@H](C)OC)nc45)cc3)nn2)cc1` [Example 33, (2S,4R)-1-((2S)-2-(4-(4-(((4-((1S,4S)-2,5-diazabicyclo[2.2.1]heptan-2-yl)-6-cyclopropyl-7-(3,6-difluoro-5-methyl-1H-indazol-4-yl)-2-((S)-2-methoxypropoxy)quinazolin-8-yl)oxy)methyl)phenyl)-1H-1,2,3-triazol-1-yl)-3-methylbutanoyl)-N—((R)-1-(4-(1-ethyl-1H-pyrazol-5-yl)phenyl)-2-hydroxyethyl)-4-hydroxypyrrolidine-2-carboxamide], for which the IC50 in the assay with AsPC-1 cells is < 10 nM. Moreover, the DC50 at KRAS (G12D) was < 10 nM.
